Reference: BindingDB's records for patent US11104664 (Yangtze River Pharmaceutical Group Co., 2021)
pIC50: −log10 of the molar value.

Biological target: Histone-lysine N-methyltransferase EZH2 [Y641F] (Homo sapiens, UniProt Q15910, Y641F)
Test: In Vitro Methyltransferase Activity Assay
Experimental: Recombinant PRC2 (EZH2-Y641F) was purchased from Active motif, S-adenosyl-methionine (SAM) and Poly-L-lysine (PLL) were purchased from Sigma-Aldrich, and H3(1-50)K27me1 peptide was purchased from Cisbio. LANCEUltrasystem (Perkinelmer) was used for detection system. In the enzyme activity test, compounds to be tested were diluted by 8 gradient points in a ratio of 1:3, and added into each well in a reaction plate, and 100 ng recombinase was added, followed by a buffer [20 mM Tris pH8.5, 2 mM MgCl2, 0.01% Tween-20, 1 mM TCEP] containing 2.5 uM SAM/250 nM H3 (1-50)K27me1 premixtures. Enzymatic reaction thus began at room temperature. After reacted for 3 hours, a detection solution premixed with PLL, detection antibody and Ulight was added, and reacted for 1 hour at room temperature. The fluorescence value was then read on a Tecan infinite pro. IC50 was calculated by fitting in a four-factor model in the XLfit software.

Sequence of Histone-lysine N-methyltransferase EZH2 [Y641F] (Q15910 whole entry Y641F): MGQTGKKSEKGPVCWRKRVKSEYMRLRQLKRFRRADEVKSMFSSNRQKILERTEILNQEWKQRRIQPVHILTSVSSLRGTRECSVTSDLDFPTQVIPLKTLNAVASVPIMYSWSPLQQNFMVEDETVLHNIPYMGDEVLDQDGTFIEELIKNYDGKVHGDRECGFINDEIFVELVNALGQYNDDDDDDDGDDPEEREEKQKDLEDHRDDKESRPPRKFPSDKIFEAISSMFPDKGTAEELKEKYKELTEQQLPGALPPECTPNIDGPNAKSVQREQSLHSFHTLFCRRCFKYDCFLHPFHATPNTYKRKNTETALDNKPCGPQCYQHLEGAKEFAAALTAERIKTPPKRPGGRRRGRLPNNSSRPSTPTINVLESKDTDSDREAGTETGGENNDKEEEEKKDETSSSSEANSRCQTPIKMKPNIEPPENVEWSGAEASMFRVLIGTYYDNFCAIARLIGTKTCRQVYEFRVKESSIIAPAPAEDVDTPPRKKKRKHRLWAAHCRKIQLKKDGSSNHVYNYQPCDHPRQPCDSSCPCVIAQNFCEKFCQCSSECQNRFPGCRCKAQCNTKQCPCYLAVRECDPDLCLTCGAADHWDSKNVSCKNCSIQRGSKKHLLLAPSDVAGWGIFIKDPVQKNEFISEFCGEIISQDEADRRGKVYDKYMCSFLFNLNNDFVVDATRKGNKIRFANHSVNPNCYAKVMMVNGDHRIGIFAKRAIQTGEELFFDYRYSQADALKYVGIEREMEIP

pIC50: 7.92
Compound: CCN(c1c(C)c(C(=O)NCc2c(C)cc(C)[nH]c2=O)cc2c1cnn2C)C1CCOCC1 [US11104664, Compound P-7]
